Experimental findings from PubChem BioAssay AID624473 (Sanford-Burnham Center for Chemical Genomics, 2012) are described below.

pIC50: −log10 of the molar value. Several values for one entry are separate records, joined by “and”; a condition that tells them apart may be missing. Identical values can stand only once. Activity calls are given as the source filed them.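 Rule for the calls: active = IC50 at or below 20 µM in the dose response; inactive = the rest.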 A value given as a limit tells only on which side of the number the result lay.

For this assay, the system named is HL-1 cardiomyocytes, 2-deoxyglucose injury, ATPlite viability, 2 h. The assay can be described thus: cardiomyocyte ATP preservation under glycolysis block – HL-1 cells, 2-deoxyglucose, set 2, SAR follow-up (AID 624473).
With `COc1cc(-c2cc(C(=O)Nc3cccc(C)c3)c3ccccc3n2)cc(OC)c1OC`, the IC50 – broadly, the concentration that inhibits the measured activity by half – was > 79 µM (inactive).
On the same count and under the same terms, the result for `CCN(CC(=O)Nc1ccc(OC)cc1)C(=O)c1cc(-c2cc(OC)c(OC)c(OC)c2)nc2ccccc12` reads 22.6 µM (inactive).
With `CCN(CC(=O)Nc1ccc(OC)cc1)C(=O)c1cc(-c2cccs2)nn1-c1ccccc1`, the negative-log IC50 (pIC50) (in general, −log10 of the IC50, conventionally taken in molar units) is 5.08 and 5.02.
Consider `COc1ccc2c(c1OC)C(=O)N1c3ccccc3C(=O)N(c3ccc(C(C)(C)C)cc3)C21` (stereo not given), for which the IC50 was > 79 µM (inactive).
For the molecule `COc1ccc2c(c1OC)C(=O)N1c3ccccc3C(=O)N(c3cccc(Br)c3)C21` (stereo not given), the IC50 is 3.64 µM and 34.8 µM (inactive).
For `COc1ccc2c(c1OC)C(=O)N1c3ccccc3C(=O)N(c3ccc(Br)cc3)C21` (stereo not given), the negative logarithm of the IC50 (pIC50) is 5.71.
Regarding `COc1ccc2c(c1OC)C(=O)N1c3ccccc3C(=O)N(Cc3cccc(Cl)c3)C21` (stereo not given), the pIC50 is 5.07.
On to `O=C1c2ccccc2N2C(=O)c3ccccc3C2N1c1ccccc1` (stereo not given), for which the IC50 was > 79 µM (inactive).
Consider `COc1cccc(N2C(=O)c3ccccc3N3C(=O)c4c(ccc(OC)c4OC)C23)c1` (stereo not given), for which the pIC50 was 4.81.
As for `COc1ccc2c(c1OC)C(=O)N1c3ccccc3C(=O)N(c3cccc(C(F)(F)F)c3)C21` (stereo not given), the pIC50 is 4.70.
Regarding `COc1cc(-c2cc(C(=O)Nc3cccc(C(C)=O)c3)c3ccccc3n2)cc(OC)c1OC`, the negative-log IC50 (pIC50) is 5.15 and 4.99.
Same read-out and setting: the result for `COc1ccc2c(c1OC)C(=O)N1c3ccccc3C(=O)N(c3cccc(F)c3)C21` (stereo not given) reads 4.86.
Still for that read-out and setting: the same measure for `CC(=O)c1cccc(NC(=O)c2cc(-c3ccccc3)nc3ccccc23)c1`: 4.85.
As for `COc1cccc(N2C(=O)c3ccccc3N3C(=O)c4ccccc4C23)c1` (stereo not given), the IC50 was > 79 µM (inactive).
`COc1cccc(-c2cc(C(=O)Nc3cccc(C(C)=O)c3)c3ccccc3n2)c1`: the pIC50 is 5.02.
Same read-out and setting: the result for `COc1cc(-c2cc(C(=O)Nc3ccc(C(C)=O)cc3)c3ccccc3n2)cc(OC)c1OC` reads 5.18; that for `COc1ccc2c(c1OC)C(=O)N1c3ccccc3C(=O)N(c3ccc(C)cc3)C21` (stereo not given), 5.52.
In the case of `COc1cc(-c2cc(C(=O)Nc3cccc(C(C)=O)c3)c3cc(Cl)ccc3n2)cc(OC)c1OC`, the IC50 is > 79 µM (inactive).
`COc1ccc2c(c1OC)C(=O)N1c3ccccc3C(=O)N(c3cccc(Cl)c3)C21` (stereo not given): the negative logarithm of the IC50 (pIC50) was 5.12.
Still for that read-out and setting: the same measure for `COc1cccc(CNC(=O)c2cc(-c3ccc(OC)c(OC)c3)nc3ccccc23)c1`: 5.03.
Same read-out and setting: the same measure for `COc1ccc(N2C(=O)c3ccccc3N3C(=O)c4c(ccc(OC)c4OC)C23)cc1` (stereo not given): 4.74.
Still for that read-out and setting: the same measure for `CCOC(=O)c1cccc(NC(=O)c2cc(-c3cc(OC)c(OC)c(OC)c3)nc3ccccc23)c1`: 5.37; for `COc1ccc2c(c1OC)C(=O)N1c3ccccc3C(=O)N(Cc3ccccc3Cl)C21` (stereo not given): 5.40.
With `COc1cc(-c2cc(C(=O)Nc3cccc(F)c3)c3ccccc3n2)cc(OC)c1OC`, the IC50 is > 79 µM (inactive).
As for `COc1ccc2c(c1OC)C(=O)N1c3ccccc3C(=O)N(c3ccccc3)C21` (stereo not given), the pIC50 was 5.29.
`COc1ccc(-c2cc(C(=O)Nc3cccc(C(C)=O)c3)c3ccccc3n2)cc1OC`: the IC50 was 19.8 µM (inactive).
Still for that read-out and setting: the same measure for `COc1ccc(-c2cc(C(=O)Nc3cccc(C(C)=O)c3)c3ccccc3n2)cc1`: > 79 µM (inactive).
Consider `COc1ccc2c(c1OC)C(=O)N1c3ccccc3C(=O)N(c3cccc(C)c3)C21` (stereo not given), for which the pIC50 was 4.78.
With `COc1cccc(CNC(=O)c2cc(-c3cc(OC)c(OC)c(OC)c3)nc3ccccc23)c1`, the pIC50 was 4.91.
In the case of `COc1ccc(NC(=O)c2cc(-c3cc(OC)c(OC)c(OC)c3)nc3ccccc23)cc1`, the IC50 is > 79 µM (inactive).
Regarding `COc1cc(-c2cc(C(=O)Nc3cccc(Cl)c3)c3ccccc3n2)cc(OC)c1OC`, the IC50 is > 79 µM (inactive).
Regarding `COc1cccc(NC(=O)c2cc(-c3cc(OC)c(OC)c(OC)c3)nc3ccccc23)c1`, the IC50 was > 79 µM (inactive).
As for `COc1cc(-c2cc(C(=O)Nc3ccccc3)c3ccccc3n2)cc(OC)c1OC`, the pIC50 is 5.09.
Consider `O=C1c2ccccc2N2C(=O)c3ccccc3C2N1c1cccc(Br)c1` (stereo not given), for which the IC50 is > 79 µM (inactive).
With `COc1cc(-c2cc(C(=O)Nc3cccc(C(F)(F)F)c3)c3ccccc3n2)cc(OC)c1OC`, the IC50 is > 79 µM (inactive).
